This test deals with hypoxia-induced VEGF production in HeLa cells. Nature of the test: cells. The class given is cell-based, human. Conditions: Homo sapiens, HeLa.
With `CC#CCOC(=O)N1CCc2c([nH]c3cccc(Cl)c23)C1c1ccc(OC)cc1` (centres unmarked) [Compound 1530], the EC50 (in general, the concentration needed to bring the measured effect to its halfway point) lay within 40 to 200 nM.
`COc1ccc(C2c3[nH]c4cccc(Cl)c4c3CCN2C(=O)Oc2ccc(Cl)cc2)cc1` (centres unmarked) [Compound 1531] showed an EC50 of 40 to 200 nM.
In turn, `COc1ccc(C2c3[nH]c4cccc(Cl)c4c3CCN2C(=O)Oc2ccc(Br)cc2)cc1` (centres unmarked) [Compound 1532] registered a 50% effective concentration (EC50) of 40 to 200 nM.
`COc1ccc(C2c3[nH]c4cccc(Cl)c4c3CCN2C(=O)Oc2ccc(F)cc2)cc1` (centres unmarked) [Compound 1533] had an EC50 of 40 to 200 nM.
As for `COc1ccc(OC(=O)N2CCc3c([nH]c4cccc(Cl)c34)C2c2ccc(OC)cc2)cc1` (centres unmarked) [Compound 1534], the EC50 was in the range of 200 to 1000 nM.
On to `O=C(Oc1ccc(Cl)cc1)N1CCc2c([nH]c3ccc(Cl)cc23)C1c1ccc(OCCCN2CCC(O)CC2)cc1` (centres unmarked) [Compound 1537], for which the EC50 was less than 8 nM.
Take `O=C(Oc1ccc(C2NCCc3c2[nH]c2ccc(Cl)cc32)cc1)c1ccccc1` (centres unmarked) [Compound 1540]: the EC50 was 8 to 40 nM.
As for `CC(C)=CC(=O)N1CCc2c([nH]c3ccc(Cl)cc23)C1c1ccc(OCCCn2cncn2)cc1` (centres unmarked) [Compound 1542], the EC50 is less than 8 nM.
Molecule `CCOC(=O)N1CCc2c([nH]c3ccc(Cl)cc23)C1c1ccc(OCC#N)cc1` (centres unmarked) [Compound 1543] showed an EC50 of less than 8 nM.
The value for `N#CCOc1ccc(C2c3[nH]c4ccc(Cl)cc4c3CCN2C(=O)OCCF)cc1` (centres unmarked) [Compound 1544] was 8 to 40 nM.
The molecule `N#CCOc1ccc(C2c3[nH]c4ccc(Cl)cc4c3CCN2C(=O)Oc2ccc(F)cc2)cc1` (centres unmarked) [Compound 1548] came in with an EC50 of 8 to 40 nM.
As for `N#CCOc1ccc(C2NCCc3c2[nH]c2ccc(Cl)cc32)cc1` (centres unmarked) [Compound 1550], the concentration for a half-maximal effect (EC50) was in the range of 200 to 1000 nM.
`CS(=O)(=O)CCCOc1ccc(C2c3[nH]c4ccc(Cl)cc4c3CCN2C(=O)Oc2ccc(Cl)cc2)cc1` (centres unmarked) [Compound 1551] returned a half-maximal effective concentration (EC50) of less than 8 nM.
`CN1CCC(OCCCOc2ccc(C3c4[nH]c5ccc(Cl)cc5c4CCN3C(=O)Oc3ccc(Cl)cc3)cc2)CC1` (centres unmarked) [Compound 1554] returned an EC50 greater than 1000 nM.
Take `O=C(Oc1ccc(Cl)cc1)N1CCc2c([nH]c3ccc(Cl)cc23)C1c1ccc(OCCCOCCN2CCOCC2)cc1` (centres unmarked) [Compound 1555]: the concentration giving a half-maximal response (EC50) is less than 8 nM.
In turn, `C[Si](C)(C)CCS(=O)(=O)N1CCC(Oc2ccc(C3NCCc4c3[nH]c3ccc(Cl)cc43)cc2)CC1` (centres unmarked) [Compound 1556] showed an EC50 of 40 to 200 nM.
As to `CCOC(=O)N1CCc2c([nH]c3ccc(Cl)cc23)[C@@H]1c1ccc(Oc2ncccn2)cc1` [Compound 1573], the EC50 is less than 8 nM.
With `CCOC(=O)N1CCc2c([nH]c3ccc(Cl)cc23)[C@@H]1c1ccc(Oc2cnccn2)cc1` [Compound 1574] the figure was less than 8 nM.
In turn, `CCOC(=O)N1CCc2c([nH]c3ccc(Cl)cc23)[C@@H]1c1ccc(Oc2ccc3ccccc3n2)cc1` [Compound 1575] had an EC50 of less than 8 nM.
For the molecule `CC#CCOC(=O)N1CCc2c([nH]c3ccc(Cl)cc23)C1c1ccc(OC2CCOCC2)cc1` (centres unmarked) [Compound 1576], the EC50 was less than 8 nM.
`CC#CCOC(=O)N1CCc2c([nH]c3ccc(Cl)cc23)C1c1ccc(OC2CCN(S(=O)(=O)CC[Si](C)(C)C)CC2)cc1` (centres unmarked) [Compound 1579] gave an EC50 of less than 8 nM.
For the molecule `C[Si](C)(C)CCS(=O)(=O)N1CCC(Oc2ccc(C3c4[nH]c5ccc(Cl)cc5c4CCN3C(=O)Oc3ccc(F)cc3)cc2)CC1` (centres unmarked) [Compound 1580], the EC50 was less than 8 nM.
The molecule `C[Si](C)(C)CCS(=O)(=O)N1CCC(Oc2ccc(C3c4[nH]c5ccc(Cl)cc5c4CCN3C(=O)Oc3ccc(Cl)cc3)cc2)CC1` (centres unmarked) [Compound 1581] came in with a concentration for a half-maximal effect (EC50) of less than 8 nM.
With `Clc1ccc2[nH]c3c(c2c1)CCN(c1ncccn1)C3c1ccc(OC2CCOCC2)cc1` (centres unmarked) [Compound 1582] the figure was less than 8 nM; with `C[Si](C)(C)CCS(=O)(=O)N1CCC(Oc2ccc(C3c4[nH]c5ccc(Cl)cc5c4CCN3c3ncccn3)cc2)CC1` (centres unmarked) [Compound 1583], less than 8 nM.
In turn, `COc1ccc(C2c3[nH]c4ccc(Cl)cc4c3CCN2c2nc(C)cs2)cc1` (centres unmarked) [Compound 1584] returned an EC50 of less than 8 nM.
Regarding `CCOC(=O)c1csc(N2CCc3c([nH]c4ccc(Cl)cc34)C2c2ccc(OC)cc2)n1` (centres unmarked) [Compound 1585], the EC50 was less than 8 nM.
With `COc1ccc(C2c3[nH]c4ccc(Cl)cc4c3CCN2c2nc(O)cs2)cc1` (centres unmarked) [Compound 1586] the figure was 40 to 200 nM; with `COc1ccc(C2c3[nH]c4ccc(Cl)cc4c3CCN2c2nc(C(C)(C)C)cs2)cc1` (centres unmarked) [Compound 1587], less than 8 nM.
The molecule `COc1ccc(C2c3[nH]c4ccc(Cl)cc4c3CCN2c2nc(C)c(C(=O)N(C)C)s2)cc1` (centres unmarked) [Compound 1588] came in with an EC50 of 40 to 200 nM.
Take `COc1ccc(C2c3[nH]c4ccc(Cl)cc4c3CCN2c2nc(C(F)(F)F)cs2)cc1` (centres unmarked) [Compound 1589]: the EC50 was less than 8 nM.
The molecule `COc1ccc(C2c3[nH]c4ccc(Cl)cc4c3CCN2c2nc(-c3ccccn3)cs2)cc1` (centres unmarked) [Compound 1590] came in with an EC50 of 8 to 40 nM.
With `COc1ccc(-c2csc(N3CCc4c([nH]c5ccc(Cl)cc45)C3c3ccc(OC)cc3)n2)cc1` (centres unmarked) [Compound 1591], the EC50 was less than 8 nM.
With `COc1ccc(C2c3[nH]c4ccc(Cl)cc4c3CCN2c2nc(-c3cccnc3)cs2)cc1` (centres unmarked) [Compound 1592] the figure was 40 to 200 nM; with `COc1ccc(C2c3[nH]c4ccc(Cl)cc4c3CCN2C(=N)SC2CCCC2=O)cc1` (centres unmarked) [Compound 1593], 40 to 200 nM.
`COc1ccc(C2c3[nH]c4ccc(Cl)cc4c3CCN2c2nc(-c3ccncc3)cs2)cc1` (centres unmarked) [Compound 1594] displayed a half-maximal effective concentration (EC50) of 40 to 200 nM.
In turn, `COc1ccc(C2c3[nH]c4ccc(Cl)cc4c3CCN2c2nc(-c3ccsc3)cs2)cc1` (centres unmarked) [Compound 1595] registered an EC50 of 8 to 40 nM.
For `COc1ccc(C2c3[nH]c4ccc(Cl)cc4c3CCN2c2nc(CC(C)=O)cs2)cc1` (centres unmarked) [Compound 1596], the EC50 lay in the range of 8 to 40 nM.
In turn, `COc1ccc(C2c3[nH]c4ccc(Cl)cc4c3CCN2c2nc(-c3ccc(Cl)cc3)cs2)cc1` (centres unmarked) [Compound 1597] displayed an EC50 of less than 8 nM.
With `COc1ccc(C2c3[nH]c4ccc(Cl)cc4c3CCN2c2nc(-c3ccccc3)cs2)cc1` (centres unmarked) [Compound 1598], the EC50 was less than 8 nM.
The value for `COc1ccc(C2c3[nH]c4ccc(Cl)cc4c3CCN2c2nc(-c3ccccc3)c(C(=O)c3ccc(Cl)cc3)s2)cc1` (centres unmarked) [Compound 1600] was less than 8 nM; that for `COc1ccc(C(=O)c2sc(N3CCc4c([nH]c5ccc(Cl)cc45)C3c3ccc(OC)cc3)nc2-c2ccccc2)cc1` (centres unmarked) [Compound 1601] was less than 8 nM.
`CC#CCOC(=O)N1CCc2c([nH]c3ccc(Cl)cc23)[C@@H]1c1ccc(OC2CCOCC2)cc1` [Compound 1603] gave an EC50 of less than 8 nM.
The value for `CC#CCOC(=O)N1CCc2c([nH]c3ccc(Cl)cc23)[C@@H]1c1ccc(OC2CCN(S(=O)(=O)CC[Si](C)(C)C)CC2)cc1` [Compound 1606] was less than 8 nM.
With `C[Si](C)(C)CCS(=O)(=O)N1CCC(Oc2ccc([C@H]3c4[nH]c5ccc(Cl)cc5c4CCN3C(=O)Oc3ccc(F)cc3)cc2)CC1` [Compound 1607] the figure was less than 8 nM.
With `C=CCOc1ccc([C@H]2c3[nH]c4ccc(Cl)cc4c3CCN2P(=O)(OCC)OCC)cc1` [Compound 1608] the figure was greater than 1000 nM.
`C=CCOc1ccc([C@H]2c3[nH]c4ccc(Cl)cc4c3CCN2C(=O)OCC2CCCC2)cc1` [Compound 1609]: the EC50 is less than 8 nM.
`CCOC(=O)N1CCc2c([nH]c3ccc(Cl)cc23)[C@@H]1c1ccc(OCCCNCC2CCCO2)cc1` (some centres unmarked) [Compound 1610] came in with an EC50 of 40 to 200 nM.
The value for `CCOC(=O)N1CCc2c([nH]c3ccc(Cl)cc23)[C@@H]1c1ccc(OCCC(O)CNC(=O)CC)cc1` (some centres unmarked) [Compound 1615] was 8 to 40 nM; that for `CCOC(=O)N1CCc2c([nH]c3ccc(Cl)cc23)[C@@H]1c1ccc(OCCC(O)CNC(=O)C(C)C)cc1` (some centres unmarked) [Compound 1616] was 8 to 40 nM.
For `CCOC(=O)N1CCc2c([nH]c3ccc(Cl)cc23)[C@@H]1c1ccc(OCCC(O)CNC(=O)c2cccnc2)cc1` (some centres unmarked) [Compound 1617], the EC50 was 8 to 40 nM.
`CCOC(=O)N1CCc2c([nH]c3ccc(Cl)cc23)[C@@H]1c1ccc(OCCC(O)CNC(=O)c2ccccn2)cc1` (some centres unmarked) [Compound 1618] displayed an EC50 of less than 8 nM.
Consider `CCOC(=O)N1CCc2c([nH]c3ccc(Cl)cc23)[C@@H]1c1ccc(OCCC(O)CNC(=O)OC)cc1` (some centres unmarked) [Compound 1619], for which the EC50 is less than 8 nM.
With `CCCOC(=O)NCC(O)CCOc1ccc([C@H]2c3[nH]c4ccc(Cl)cc4c3CCN2C(=O)OCC)cc1` (some centres unmarked) [Compound 1620] the figure was less than 8 nM; with `CCOC(=O)N1CCc2c([nH]c3ccc(Cl)cc23)[C@@H]1c1ccc(OCCC(O)CNC(=O)OCCOC)cc1` (some centres unmarked) [Compound 1621], less than 8 nM.
`CCOC(=O)N1CCc2c([nH]c3ccc(Cl)cc23)[C@@H]1c1ccc(OCCC(O)CNS(C)(=O)=O)cc1` (some centres unmarked) [Compound 1622] displayed an EC50 of less than 8 nM.
The value for `CCOC(=O)N1CCc2c([nH]c3ccc(Cl)cc23)[C@@H]1c1ccc(OCCC(O)CNS(=O)(=O)CC)cc1` (some centres unmarked) [Compound 1623] was less than 8 nM; that for `CCOC(=O)N1CCc2c([nH]c3ccc(Cl)cc23)[C@@H]1c1ccc(OCCC(O)CNS(=O)(=O)C2CC2)cc1` (some centres unmarked) [Compound 1624] was less than 8 nM.
For the molecule `O=C(OCC1CCCC1)N1CCc2c([nH]c3ccc(Cl)cc23)[C@@H]1c1ccc(OCCCO)cc1` [Compound 1630], the EC50 is less than 8 nM.
`O=C(OCC1CCCC1)N1CCc2c([nH]c3ccc(Cl)cc23)[C@@H]1c1ccc(O)cc1` [Compound 1631] had an EC50 of 40 to 200 nM.
For the molecule `OCCCOc1ccc([C@H]2c3[nH]c4ccc(Cl)cc4c3CCN2c2nc(C(F)(F)F)cs2)cc1` [Compound 1632], the EC50 was less than 8 nM.
Molecule `OC[C@@H](O)COc1ccc([C@H]2c3[nH]c4ccc(Cl)cc4c3CCN2c2nc(C(F)(F)F)cs2)cc1` [Compound 1633] returned an EC50 of less than 8 nM.
Turning to `OC[C@H](O)COc1ccc([C@H]2c3[nH]c4ccc(Cl)cc4c3CCN2c2nc(C(F)(F)F)cs2)cc1` [Compound 1634], the EC50 is less than 8 nM.
Turning to `CS(=O)(=O)CCCOc1ccc([C@H]2c3[nH]c4ccc(Cl)cc4c3CCN2C(=O)Oc2ccc(Cl)cc2)cc1` [Compound 1648], the EC50 was less than 8 nM.
Molecule `CCOC(=O)NC[C@@H](O)COc1ccc([C@H]2c3[nH]c4ccc(Cl)cc4c3CCN2C(=O)OCC)cc1` [Compound 1650] had an EC50 of less than 8 nM.

The values above are taken from patent US11613538B2, “Method of inhibiting or reducing a viral infection” (PTC Therapeutics, Inc., priority 2009, dated 2023).
